Laboratory results from ChEMBL document CHEMBL4340507, “Identification of an indol-based multi-target kinase inhibitor through phenotype screening and target fishing using inverse virtual screening approach” (Eur J Med Chem, 2019).
Activity calls are given as the source filed them. The calls are words filed in the database; no cut-off is given here.

Key:
[1] = system: PC-3; assay: Antiproliferative activity against human PC3 cells assessed as decrease in cell viability measured after 72 hrs by MTT assay; type: functional, cell-based; details: PC-3, 72 h
[2] = system: Jurkat; assay: Antiproliferative activity against human Jurkat T cells assessed as decrease in cell viability measured after 24 to 72 hrs by MTT assay; type: functional, cell-based
[3] = biological target: BDNF/NT-3 growth factors receptor (Homo sapiens, UniProt Q16620); assay: Inhibition of recombinant human N-terminal GST-His6-fused TRKB C-terminal domain (V526 to G838 residues) expressed in Sf9 insect cells using Poly(Glu:Tyr)4:1 as substrate measured after 60 mins in presence of [gamma-33P]-ATP by scintillation counting method
[4] = biological target: Receptor tyrosine-protein kinase erbB-4 (Homo sapiens, UniProt Q15303); assay: Inhibition of recombinant human N-terminal GST-His6-fused ERBB4 C-terminal domain (R676 to V1307 residues) expressed in Sf9 cells using Poly(Glu:Tyr)4:1 as substrate measured after 60 mins in presence of [gamma-33P]-ATP by scintillation counting method
[5] = biological target: Mast/stem cell growth factor receptor Kit (Homo sapiens, UniProt P10721); assay: Inhibition of recombinant human wild-type N-terminal GST-His6-fused KIT C-terminal domain (T544 to V976 residues) expressed in Sf9 insect cells using TRK-C derived peptide as substrate measured after 60 mins in presence of [gamma-33P]-ATP by scintillation counting method
[6] = biological target: Fibroblast growth factor receptor 1 (Homo sapiens, UniProt P11362); assay: Inhibition of recombinant human wild-type N-terminal GST-His6-fused FGFR1 C-terminal domain (G400 to R820 residues) expressed in Sf9 insect cells using Poly(Glu:Tyr)4:1 as substrate measured after 60 mins in presence of [gamma-33P]-ATP by scintillation counting method
[7] = biological target: Fibroblast growth factor receptor 2 (Homo sapiens, UniProt P21802); assay: Inhibition of recombinant human N-terminal GST-His6-fused FGFR2 C-terminal domain (R400 to T822 residues) expressed in Sf9 insect cells using TRK-C derived peptide as substrate measured after 60 mins in presence of [gamma-33P]-ATP by scintillation counting method
[8] = biological target: Receptor tyrosine-protein kinase erbB-2 (Homo sapiens, UniProt P04626); assay: Inhibition of recombinant human wild-type N-terminal GST-His6-fused ERBB2 C-terminal domain (Q679 to V1255 residues) expressed in Sf9 insect cells using Poly(Glu:Tyr)4:1 as substrate measured after 60 mins in presence of [gamma-33P]-ATP by scintillation counting method
[9] = biological target: Vascular endothelial growth factor receptor 1 (Homo sapiens, UniProt P17948); assay: Inhibition of recombinant human N-terminal GST-tagged VEGFR1 C-terminal domain (K784 to I1338 residues) expressed in Sf9 insect cells using Poly(Glu:Tyr)4:1 as substrate measured after 60 mins in presence of [gamma-33P]-ATP by scintillation counting method
[10] = biological target: Hepatocyte growth factor receptor (Homo sapiens, UniProt P08581); assay: Inhibition of recombinant human wild-type N-terminal GST-His6-fused MET C-terminal domain (K956 to S1390 residues) expressed in Sf9 insect cells using TRK-C derived peptide as substrate measured after 60 mins in presence of [gamma-33P]-ATP by scintillation counting method
[11] = biological target: Mitogen-activated protein kinase 3 (Homo sapiens, UniProt P27361); assay: Inhibition of recombinant human full-length N-terminal GST-His6 fused ERK1 (M1 to P379 residues) expressed in Escherichia coli using RBER-CHKtide as substrate measured after 60 mins in presence of [gamma-33P]-ATP by scintillation counting method
[12] = biological target: Mitogen-activated protein kinase 1 (Homo sapiens, UniProt P28482); assay: Inhibition of recombinant human full-length untagged ERK2 (M1 to S360 residues) expressed in Escherichia coli using recombinant ELK1 as substrate measured after 60 mins in presence of [gamma-33P]-ATP by scintillation counting method
[13] = biological target: Casein kinase II subunit alpha' (Homo sapiens, UniProt P19784); assay: Inhibition of recombinant human full-length N-terminal GST-His6-fused CK2-alpha2 (M1 to R350 residues) expressed in Sf9 insect cells using casein as substrate measured after 60 mins in presence of [gamma-33P]-ATP by scintillation counting method
[14] = biological target: Mitogen-activated protein kinase kinase kinase 9 (Homo sapiens, UniProt P80192); assay: Inhibition of recombinant human MAP3K9 measured after 60 mins in presence of [gamma-33P]-ATP by scintillation counting method
[15] = biological target: Dual specificity mitogen-activated protein kinase kinase 1 (Homo sapiens, UniProt Q02750); assay: Inhibition of recombinant human wild-type full-length MEK1 (M1 to V393 residues) expressed in Sf9 insect cells using ERK2-K54R as substrate measured after 60 mins in presence of [gamma-33P]-ATP by scintillation counting method
[16] = system: HeLa; assay: Induction of apoptosis in human HeLa cells assessed as increase in hypodiploid nuclei at 0.3 to 0.6 uM measured after 24 hrs by propidium iodide staining-based FACS analysis; type: functional, cell-based
[17] = system: IEC-6; assay: Induction of apoptosis in rat IEC-6 cells assessed as increase in hypodiploid nuclei at 0.1 to 0.6 uM measured after 24 hrs by propidium iodide staining-based FACS analysis; type: cell-based; details: iec-6, 24 h
[18] = system: IEC-6; assay: Cell cycle arrest in rat IEC-6 cells assessed as increase in accumulation at S phase at 0.1 to 0.6 uM after 24 hrs by propidium iodide staining based FACS analysis; type: ADME; details: iec-6, 24 h
[19] = system: HeLa; assay: Cell cycle arrest in human HeLa cells assessed as accumulation at G0/G1-phase at 0.1 to 0.6 uM after 24 hrs by propidium iodide staining-based FACS analysis; type: functional
[20] = system: HeLa; assay: Induction of ROS generation in human HeLa cells at 0.1 to 0.6 uM measured after 24 hrs by H2DC-DA probe-based FACS analysis; type: functional, cell-based
[21] = system: IEC-6; assay: Induction of ROS generation in rat IEC-6 cells at 0.1 to 0.6 uM measured after 24 hrs by H2DCF-DA staining-based FACS analysis; type: cell-based; details: iec-6, 24 h
[22] = system: IEC-6; assay: Induction of apoptosis in rat IEC-6 cells assessed as increase in caspase 3 level at 0.1 to 0.6 uM after 24 hrs by FACS analysis; type: cell-based; details: iec-6, 24 h
[23] = system: IEC-6; assay: Down regulation of ERK expression in rat IEC-6 cells at 0.1 to 0.6 uM after 24 hrs by FACS analysis; type: ADME, cell-based; details: iec-6, 24 h
[24] = Inhibition of ERK phosphorylation in rat IEC-6 cells at 0.1 to 0.6 uM after 24 hrs by FACS analysis; type: cell-based; details: iec-6, 24 h
[25] = system: IEC-6; assay: Induction of apoptosis in rat IEC-6 cells assessed as effect on PARP level at 0.1 to 0.6 uM after 24 hrs by FACS analysis; type: cell-based; details: iec-6, 24 h
[26] = biological target: Vascular endothelial growth factor receptor 3 (Homo sapiens, UniProt P35916); assay: Inhibition of recombinant human N-terminal GST-His6 fused VEGFR3 C-terminal domain (N799 to R1298 residues) expressed in baculovirus infected Sf9 insect cells using Poly(Glu:Tyr)4:1 as substrate measured after 60 mins in presence of [gamma-33P]-ATP by scintillation counting method

- IC50 [1]: 16.9 µM
- IC50 [2]: 2700 nM
- IC50 [3]: 6.3 µM
- IC50 [4]: 7.9 µM
- IC50 [5]: 11 µM
- IC50 [6]: 13 µM
- IC50 [7]: 23 µM
- IC50 [8]: 24 µM
- IC50 [9]: 43 µM
- IC50 [10]: 61 µM
- IC50 [11]: 65 µM
- IC50 [12]: 66 µM
- IC50 [13]: 99 µM
- IC50 [14]: 100 µM
- IC50 [15]: > 100 µM
- inhibition (INH) [24]: Not Active
- IC50 [26]: > 100 µM
SMILES: CN(CCc1ccc(-c2ccccc2)cc1)Cc1cn(C)c2ccc(C(=O)Nc3ccc(F)cc3)cc12
- Activity [16]: Active
- Activity [17]: Toxic
- Activity [18]: Toxic
- Activity [19]: Active
- Activity [20]: Active
- Activity [21]: Toxic
- Activity [22]: Toxic
- Activity [23]: Non-Toxic
- Activity [25]: Non-Toxic
